Publication PMC12070228, “Investigations of Enteric-Coated Tablet Propyl Gallate-Induced Nephrotoxicity in Beagles as well as Human and Dog Renal Proximal Tubule Epithelial Cells” (ACS Pharmacology & Translational Science, 2025)
pEC50: −log10 of the molar value. Like-named read-outs stand apart in the source and are kept apart here.

Assays:
[1] = system: dog RPTECs; assay: Cell Titer Glo cell viability assay; type: cell-based
Procedure: (§1) Frozen RPTECs vials were removed from liquid nitrogen storage and placed in a 37 °C water bath until the contents were completely thawed. The cells were gently resuspended and dispensed into a cell culture flask at a seeding density of ∼7500 cells/cm^2. The flask was placed in a 37 °C, 5% CO2 incubator. Cell cultures were given fresh medium the following morning and then every other day until the cell culture was approximately 90% confluent. When the cell culture was 90% confluent, medium was removed and the cells were rinsed with warmed PBS. Cells were harvested and split into new flasks based on a cell density of 7500 cells/cm^2. Cells were incubated at 37 °C for 3 days, with fresh medium added each day. Cells were harvested and diluted with growth medium to a density of 200,000 cells/mL. 100 μL of cell suspension per well (20,000 cells/well) was added to a clear-bottom 96-well microplate for luminescence assays. The plated cells were incubated in the 37 °C incubator for 3 days.
(§2) Each test compound (PG, GA, 4OMPG and 4OMGA) was initially reconstituted using DMSO at a concentration of 250 mg/mL. Serial dilutions of each compound were performed to reach concentrations of 4000 μM, 2000 μM, 1000 μM, 500 μM, 250 μM, 125 μM, 62.5 μM, 31.3 μM using warmed fresh supplemented medium with 0.4% (v/v) DMSO for all concentration levels. 100 μL of media containing the compound solution was added to the cells. Final concentrations of the compounds were 2000 μM, 1000 μM, 500 μM, 250 μM, 125 μM, 62.5 μM, 31.3 μM, 15.7 μM. […]
(§3) Cell media were removed and cells were washed twice with 200 μL of PBS buffer per well. […] The plate was gently shaken and incubated in the dark for 30 min and luminescence was measured using a PerkinElmer VICTOR X3 plate reader. […] Luminescence was measured using a PerkinElmer VICTOR X3 plate reader.
(§4) For cell-based assays, data was normalized to the negative control. Cell viability and GSH level were expressed as Cell viability or GSH level=Luminescence(each well)/Luminescence(average of DMSO negative control)

[2] = system: human RPTECs; assay: Cell Titer Glo cell viability assay; type: cell-based; details: RPTEC, 48 h exposure, estimated
Procedure: as §1, §2, §3, §4

[3] = system: dog RPTECs; assay: GSH-Glo glutathione assay; type: cell-based
Procedure: as §1
(§5) Each test compound (PG, GA, 4OMPG and 4OMGA) was initially reconstituted using DMSO at a concentration of 250 mg/mL. Serial dilutions of each compound were performed to reach concentrations of 4000 μM, 2000 μM, 1000 μM, 500 μM, 250 μM, 125 μM, 62.5 μM, 31.3 μM using warmed fresh supplemented medium with 0.4% (v/v) DMSO for all concentration levels. 100 μL of media containing the compound solution was added to the cells. Final concentrations of the compounds were 2000 μM, 1000 μM, 500 μM, 250 μM, 125 μM, 62.5 μM, 31.3 μM, 15.7 μM. AZ13599185 (tubulysin, 100 or 500 ng/mL) or cisplatin (30 μg/mL) and buthionine sulfoximine (BSO, 200 μM) were used as positive controls for CTG and GSH assays, respectively. 0.2% (v/v) DMSO in medium was used as the control for both assays, corrsponding to the final cocnetration of DMSO in the well. Three replicates for each compound at each concentration were prepared. Six replicates of positive or negative controls were prepared. Cells were incubated at 37 °C for approximately 48 h.
(§6) Cell media were removed and cells were washed twice with 200 μL of PBS buffer per well. CTG and GSH assay reagents were added to the wells and the assays were performed following the protocols of the Promega assay kits. Briefly, to perform the CTG assay, 100 μL of CTG solution was added into each well. The plate was gently shaken and incubated in the dark for 30 min and luminescence was measured using a PerkinElmer VICTOR X3 plate reader. To perform the GSH assay, luciferin-NT substrate and glutathione S-transferase were mixed into the GSH-GLo solution. 100 μL of the mixed solution was added into each well. The plate was gently shaken and incubated in the dark for at least 30 min. 100 μL of Luciferin Detection Reagent was added per well. The plate was gently shaken and incubated in the dark for at least 15 min. Luminescence was measured using a PerkinElmer VICTOR X3 plate reader.
as §4

[4] = system: human RPTECs; assay: GSH-Glo glutathione assay; type: cell-based
Procedure: as §1, §5, §6, §4

[5] = PG toxicokinetics in dog plasma (LC-MS/MS), studies 001-005; type: in vivo; details: beagle, po
Procedure: Samples were vortexed and centrifuged before injection.
The total run time was 5.5 min.
The targeted quantitation of PG and phase-I/II metabolites was conducted using peak area ratio of analytes and internal standards in MultiQuant software (SCIEX).
In the follow-up 4-week study (study 003), dogs received EC tablets consisting of the clinical formulation excipients minus PG, clinical formulation excipients minus NaCDC, or PG alone in a gelatin capsule once daily for 26 days. […] Samples for PG toxicokinetics were collected on days 1 and 22 of the dosing-phase at predose (Day 22 only) and 0.5, 1, 2, 4, 6, 8, 12, and 24 h postdose. […] Plasma samples for the measurement of lipopolysaccharide (LPS) were taken twice in the pretest period, predose and 2 h after dosing on Days 15 and 22, and prior to necropsy. LPS concentrations were measured using a qualified sandwich ELISA method (LSBiosciences) with a detection range of 7.82 to 500 pg/mL.
Table S2. Correlation of PG exposure with nephrotoxicity.
AUC0-24 = area under the concentration versus time curve from time 0 to 24 hours; clin = clinical; F = female; M = male; NR = no result due to insufficient data. […]
a Clinical formulation excipients included sodium chenodeoxycholate (Na CDC), propyl gallate (PG), tris(hydroxymethyl)aminomethane (Tris)(except for Study 005), mannitol, crospovidone, aerosil, sodium stearyl fumarate, eudragit, and plasarcryl. b Study 001: Initial 4-week investigational new drug (IND)-enabling good laboratory practice (GLP) study c Study 002: Investigative 4-week study with different excipient combinations d Study 003: Follow-up investigative 4-week study with non-enteric coated capsule e Study 004: 3-month GLP study f Study 005: 9-month GLP study g Day 7 AUC value is presented; AUC could not be calculated for Day 28 samples due to insufficient data. h Minimal nephropathy observed in 2 recovery (4 weeks) group females, but not in main group animals.

[6] = no reference given; cited from earlier work
[7] = Exposure comparison of PG and phase-I and phase-II metabolites in dog and human plasma; details: oral EC MEDI7219 tablets; samples through 8 h; human PG 800 mg (N = 8), dog PG 200 mg/kg/day (N = 6)
Procedure: Dog blood was collected via jugular vein in potassium (K2) EDTA tubes and processed to plasma. Samples were centrifuged at approximately 3000 rpm for 5 min at approximately 4 °C within 30 min of collection. Plasma samples were acidified with 1% (v/v) formic acid (FA) to avoid degradation of PG and metabolites in plasma within 20 min of the start of centrifugation and then stored frozen (≤-60 °C). Acidified plasma was extracted using internal standard-spiked solution (100 mM ammonium bicarbonate: acetonitrile = 1:4). Samples were then centrifuged to collect supernatant, followed by drying to completion. The dried samples were reconstituted with 200 uL of 0.1% (v/v) formic acid in water. Samples were vortexed and centrifuged before injection. In order to assess potential impact of hemolysis on qualification of PG and its metabolites, hemolyzed plasma was prepared by spiking fully hemolyzed whole blood at an indicated percentage into plasma.
Separations were conducted on a reversed-phase column (Phenomenex, Kinetex F5, 2.6 μm 100 Å, 100 × 4.6 mm) at a flow rate of 0.7 mL/min at 40 °C. Mobile phase A was 0.1% formic acid in water and mobile phase B was 0.1% formic acid in methanol. The samples were analyzed on a SCIEX 6500+ QTRAP under negative ESI mode. The total run time was 5.5 min. Eight calibration standards and three quality control (LQC, MQC and HQC) samples were used for quantification.
The primary metabolites of PG were measured in dog and human plasma following oral administration of EC MEDI7219 tablets to examine a potential mechanism of the PG-mediated renal toxicity in dog and its possible translatability to humans. Plasma concentrations of PG, its phase-I metabolites GA and 4OMGA and phase-II glucuronide and glutathione conjugates were measured. The human and dog samples, collected through 8 h after administration, were analyzed and the results were compared (Figure , Figure S5). Based on allometric scaling method the highest daily dose administered in humans was approximately 8-fold less compared with the dose level tested in dogs.
Human (H) data is in black. Dog (D) data is in red (study 002). Concentration (mM) is in log10 scale. Data was normalized to PG dose (mg/kg/day). N = 8 for human (PG dosed at 800 mg with MEDI7219 tablets). N = 6 for dogs (PG dosed at 200 mg/kg/day). Below LLOQ values were set to 1/2 LLOQ for the calculation.

[8] = ~48 h exposure, normalized to DMSO control

In the case of `CCCOC(=O)c1cc(O)c(O)c(O)c1` [PG, propyl gallate], the pEC50 ([1]; Canis lupus familiaris, RPTEC, dog RPTECs, 48 h exposure, estimated) was ~4.33, the “Relative difference in sensitivity between human and dog RPTECs” value ([1]; human EC50 vs dog EC50, cell viability) was ~33 fold and the pEC50 [2] was ~2.82. For the same compound, the “GSH levels at high concentrations” value ([3]; ~48 h, high concentrations) was “reduction of GSH levels”, the “Glutathione (GSH) levels” value [3, 8] was “not in dog cells” and the “GSH levels at high concentrations” value ([4]; ~48 h, high concentrations) was “reduction of GSH levels”. For the same compound, the “Glutathione (GSH) levels” value [4, 8] was “induced”, the AUC(0-t) ([5]; 12.5 mg/kg/day, PG 12.5, NaCDC 10, MEDI7219 0.75 mg/kg/day, clin excipients, Study 005 Day 112, read-out: Propyl Gallate Exposure (AUC0-24)) was 72 ng·h/mL and the AUC(0-t) ([5]; 12.5 mg/kg/day, PG 12.5, NaCDC 10, MEDI7219 0.75 mg/kg/day, clin excipients, Study 005 Day 196, read-out: Propyl Gallate Exposure (AUC0-24)) was 88 ng·h/mL. For the same compound, the AUC(0-t) ([5]; 12.5 mg/kg/day, PG 12.5, NaCDC 10, MEDI7219 0.75 mg/kg/day, clin excipients, Study 005 Day 266, read-out: Propyl Gallate Exposure (AUC0-24)) was 90 ng·h/mL, the AUC(0-t) ([5]; 14 mg/kg/day, PG 14, NaCDC 7, MEDI7219 0.4 mg/kg/day, clin excipients, Study 004 Day 78, read-out: Propyl Gallate Exposure (AUC0-24)) was 101 ng·h/mL and the AUC(0-t) ([5]; 200 mg/kg/day, PG 200, NaCDC 0, MEDI7219 0 mg/kg/day, clin excipients minus NaCDC and Tris, Study 002 Day 14, read-out: Propyl Gallate Exposure (AUC0-24)) was 1890 ng·h/mL. For the same compound, the AUC(0-t) ([5]; 200 mg/kg/day, PG 200, NaCDC 0, MEDI7219 0 mg/kg/day, clin excipients minus NaCDC and Tris, Study 002 Day 21, read-out: Propyl Gallate Exposure (AUC0-24)) was 4840 ng·h/mL, the AUC(0-t) ([5]; 200 mg/kg/day, PG 200, NaCDC 0, MEDI7219 0 mg/kg/day, clin excipients minus NaCDC, Study 002 Day 14, read-out: Propyl Gallate Exposure (AUC0-24)) was 2580 ng·h/mL and the AUC(0-t) ([5]; 200 mg/kg/day, PG 200, NaCDC 0, MEDI7219 0 mg/kg/day, clin excipients minus NaCDC, Study 002 Day 21, read-out: Propyl Gallate Exposure (AUC0-24)) was 1850 ng·h/mL. For the same compound, the AUC(0-t) ([5]; 200 mg/kg/day, PG 200, NaCDC 0, MEDI7219 0 mg/kg/day, clin excipients minus NaCDC, Study 003 Day 22, read-out: Propyl Gallate Exposure (AUC0-24)) was 6290 ng·h/mL, the AUC(0-t) ([5]; 200 mg/kg/day, PG 200, NaCDC 0, MEDI7219 0 mg/kg/day, gelatin capsule (PG only), Study 003 Day 22, read-out: Propyl Gallate Exposure (AUC0-24)) was 1980 ng·h/mL and the AUC(0-t) ([5]; 200 mg/kg/day, PG 200, NaCDC 100, MEDI7219 0 mg/kg/day, clin excipients minus Tris, Study 002 Day 14, read-out: Propyl Gallate Exposure (AUC0-24)) was 2760 ng·h/mL. The AUC(0-t) ([5]; 200 mg/kg/day, PG 200, NaCDC 100, MEDI7219 0 mg/kg/day, clin excipients minus Tris, Study 002 Day 21, read-out: Propyl Gallate Exposure (AUC0-24)) was 1800 ng·h/mL, the AUC(0-t) ([5]; 200 mg/kg/day, PG 200, NaCDC 100, MEDI7219 0 mg/kg/day, clin excipients, Study 002 Day 14, read-out: Propyl Gallate Exposure (AUC0-24)) was 3250 ng·h/mL and the AUC(0-t) ([5]; 200 mg/kg/day, PG 200, NaCDC 100, MEDI7219 2 mg/kg/day, clin excipients, Study 001 Day 28, read-out: Propyl Gallate Exposure (AUC0-24)) was 1210 ng·h/mL. The AUC(0-t) ([5]; PG 25, NaCDC 20, MEDI7219 0.25 mg/kg/day, clin excipients, Study 005 Day 112, read-out: Propyl Gallate Exposure (AUC0-24)) was 135 ng·h/mL, the AUC(0-t) ([5]; PG 25, NaCDC 20, MEDI7219 0.25 mg/kg/day, clin excipients, Study 005 Day 196, read-out: Propyl Gallate Exposure (AUC0-24)) was 232 ng·h/mL and the AUC(0-t) ([5]; PG 36, NaCDC 18, MEDI7219 1.1 mg/kg/day, clin excipients, Study 004 Day 78, read-out: Propyl Gallate Exposure (AUC0-24)) was 282 ng·h/mL. It also gave an AUC(0-t) ([5]; PG 44, NaCDC 22, MEDI7219 0 mg/kg/day, clin excipients, Study 005 Day 196, read-out: Propyl Gallate Exposure (AUC0-24)) of 864 ng·h/mL, an AUC(0-t) ([5]; PG 44, NaCDC 35, MEDI7219 2.6 mg/kg/day, clin excipients, Study 005 Day 196, read-out: Propyl Gallate Exposure (AUC0-24)) of 1870 ng·h/mL and an AUC(0-t) ([5]; PG 60, NaCDC 48, MEDI7219 0 mg/kg/day, clin excipients, Study 005 Day 112, read-out: Propyl Gallate Exposure (AUC0-24)) of 3610 ng·h/mL. The AUC(0-t) ([5]; PG 60, NaCDC 48, MEDI7219 3.6 mg/kg/day, clin excipients, Study 005 Day 112, read-out: Propyl Gallate Exposure (AUC0-24)) was 829 ng·h/mL, the AUC(0-t) ([5]; PG 76, NaCDC 38, MEDI7219 0.75 mg/kg/day, clin excipients, Study 001 Day 28, read-out: Propyl Gallate Exposure (AUC0-24)) was 618 ng·h/mL and the AUC(0-t) ([5]; PG 100, NaCDC 50, MEDI7219 0 mg/kg/day, clin excipients, Study 004 Day 78, read-out: Propyl Gallate Exposure (AUC0-24)) was 1830 ng·h/mL. It also gave an AUC(0-t) ([5]; PG 100, NaCDC 50, MEDI7219 3 mg/kg/day, clin excipients, Study 004 Day 78, read-out: Propyl Gallate Exposure (AUC0-24)) of 767 ng·h/mL, an AUC(0-t) ([5]; PG 200, NaCDC 100, MEDI7219 0 mg/kg/day, clin excipients, Study 001, Day 28 column but Day 7 AUC value is presented (footnote g), read-out: Propyl Gallate Exposure (AUC0-24)) of 2560 ng·h/mL and an AUC(0-t) ([5]; female, 25 mg/kg/day, female (F), PG 25, NaCDC 20, MEDI7219 0.25 mg/kg/day, clin excipients, Study 005 Day 266, read-out: Propyl Gallate Exposure (AUC0-24)) of 986 ng·h/mL. For the same compound, the AUC(0-t) ([5]; male, 25 mg/kg/day, male (M), PG 25, NaCDC 20, MEDI7219 0.25 mg/kg/day, clin excipients, Study 005 Day 266, read-out: Propyl Gallate Exposure (AUC0-24)) was 158 ng·h/mL, the “Log P” value [6] was 2.13 and the “Plasma exposure, humans compared with dogs” value [7] was “comparable between the two species”.
